Measured values: PubChem BioAssay (NCI)
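These data come from cells grown in 96-well plates and exposed to compound for 48 hours at five concentrations. At the TGI there is no net growth.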

Legend:
Test in all cases: DTP human tumour cell line panel, 48 h
[1] = test system: 786-0 renal
[2] = test system: A498 renal
[3] = test system: A549 NSCLC
[4] = test system: ACHN renal
[5] = test system: BT-549 breast
[6] = test system: CAKI-1 renal
[7] = test system: CCRF-CEM leukemia
[8] = test system: COLO 205 colon
[9] = test system: DU-145 prostate
[10] = test system: EKVX NSCLC
[11] = test system: HCC-2998 colon
[12] = test system: HCT-116 colon
[13] = test system: HCT-15 colon
[14] = test system: HL-60(TB) leukemia
[15] = test system: HOP-62 NSCLC
[16] = test system: HOP-92 NSCLC
[17] = test system: HS 578T breast
[18] = test system: HT29 colon
[19] = test system: IGROV1 ovarian
[20] = test system: K-562 leukemia
[21] = test system: KM12 colon
[22] = test system: LOX IMVI melanoma
[23] = test system: M14 melanoma
[24] = test system: MALME-3M melanoma
[25] = test system: MCF7 breast
[26] = test system: MDA-MB-231 breast
[27] = test system: MDA-MB-435
[28] = test system: MDA-N
[29] = test system: MOLT-4 leukemia
[30] = test system: NCI-H226 lung
[31] = test system: NCI-H23 lung
[32] = test system: NCI-H460 lung
[33] = test system: NCI-H522 lung
[34] = test system: NCI/ADR-RES ovarian
[35] = test system: OVCAR-3 ovarian
[36] = test system: OVCAR-4 ovarian
[37] = test system: OVCAR-5 ovarian
[38] = test system: OVCAR-8 ovarian
[39] = test system: PC-3 prostate
[40] = test system: RPMI-8226 leukemia
[41] = test system: RXF 393 renal
[42] = test system: SF-268 CNS
[43] = test system: SF-295 CNS
[44] = test system: SF-539 CNS
[45] = test system: SK-MEL-2 melanoma
[46] = test system: SK-MEL-28 melanoma
[47] = test system: SK-MEL-5 melanoma
[48] = test system: SK-OV-3 ovarian
[49] = test system: SN12C renal
[50] = test system: SNB-19 CNS
[51] = test system: SNB-75 CNS
[52] = test system: SR leukemia
[53] = test system: SW-620 colon
[54] = test system: T-47D breast
[55] = test system: TK-10 renal
[56] = test system: U251 CNS
[57] = test system: UACC-257 melanoma
[58] = test system: UACC-62 melanoma
[59] = test system: UO-31 renal

O=C1C[C@H](Sc2ccccc2)C2(OCCO2)[C@H]2ON3CCC[C@@H]3[C@@H]12
TGI [1]: 4.98 µM | TGI [2]: 27.9 µM | TGI [3]: 13 µM | TGI [4]: 5.55 µM | TGI [5]: 16.2 µM | TGI [6]: 7.13 µM | TGI [7]: 0.829 µM | TGI [8]: 5.31 µM | TGI [9]: 6.95 µM | TGI [10]: 9.64 µM | TGI [11]: 6.69 µM | TGI [12]: 2.88 µM | TGI [13]: 4.42 µM | TGI [14]: 3.67 µM | TGI [15]: 5.29 µM | TGI [16]: 3.92 µM | TGI [17]: > 39 µM | TGI [18]: 2.81 µM | TGI [19]: 2.46 µM | TGI [20]: 8.11 µM | TGI [21]: 2.87 µM | TGI [22]: 3.05 µM | TGI [23]: 7.19 µM | TGI [24]: 4.01 µM | TGI [25]: 3.16 µM | TGI [26]: 10.9 µM | TGI [27]: 3.9 µM | TGI [28]: 13.3 µM | TGI [29]: 1.85 µM | TGI [30]: 26.7 µM | TGI [31]: 7.12 µM | TGI [32]: 9.55 µM | TGI [33]: 2.08 µM | TGI [34]: 30.8 µM | TGI [35]: 2.75 µM | TGI [36]: 9.14 µM | TGI [37]: 7.8 µM | TGI [38]: 11.5 µM | TGI [39]: 13 µM | TGI [40]: 1.33 µM | TGI [41]: 11 µM | TGI [42]: 7.25 µM | TGI [43]: 14.4 µM | TGI [44]: 7.9 µM | TGI [45]: 13.8 µM | TGI [46]: 7.55 µM | TGI [47]: 21.6 µM | TGI [48]: 11.4 µM | TGI [49]: 6.29 µM | TGI [50]: 19.6 µM | TGI [51]: 11.5 µM | TGI [52]: 1.95 µM | TGI [53]: 5.82 µM | TGI [54]: 7.17 µM | TGI [55]: 13.3 µM | TGI [56]: 6.66 µM | TGI [57]: 8.71 µM | TGI [58]: 3.77 µM | TGI [59]: 3.61 µM

O=c1[nH]c2cc(C(F)(F)F)ccc2nc1CBr
TGI [1]: 19.2 µM | TGI [2]: 33 µM | TGI [3]: 27.4 µM | TGI [4]: 20.2 µM | TGI [5]: 27.5 µM | TGI [6]: 17.5 µM | TGI [7]: 5.73 µM | TGI [8]: 35.8 µM | TGI [9]: 23.1 µM | TGI [10]: 29.5 µM | TGI [11]: 33.2 µM | TGI [12]: 28.7 µM | TGI [13]: 33.3 µM | TGI [14]: 14.3 µM | TGI [15]: 28.7 µM | TGI [16]: 11.1 µM | TGI [17]: 56.6 µM | TGI [18]: 38.6 µM | TGI [19]: 24.5 µM | TGI [20]: > 100 µM | TGI [21]: 31.4 µM | TGI [22]: 12.8 µM | TGI [23]: 21.1 µM | TGI [24]: 27.4 µM | TGI [25]: 21.7 µM | TGI [26]: 35.6 µM | TGI [27]: 26.2 µM | TGI [28]: 26.9 µM | TGI [29]: > 100 µM | TGI [30]: 26.7 µM | TGI [31]: 38.6 µM | TGI [32]: 32.3 µM | TGI [33]: 1.52 µM | TGI [34]: 50.4 µM | TGI [35]: 23.7 µM | TGI [36]: 32.3 µM | TGI [37]: 29.3 µM | TGI [38]: 39.6 µM | TGI [39]: 26.3 µM | TGI [40]: 69.8 µM | TGI [41]: 25.2 µM | TGI [42]: 59.1 µM | TGI [43]: 28.9 µM | TGI [44]: 16.1 µM | TGI [45]: 26.6 µM | TGI [46]: 30 µM | TGI [47]: 28.5 µM | TGI [48]: 35.2 µM | TGI [49]: 34.8 µM | TGI [50]: 32.7 µM | TGI [51]: 30.7 µM | TGI [52]: > 100 µM | TGI [53]: 37.6 µM | TGI [54]: 33.3 µM | TGI [55]: 27.9 µM | TGI [56]: 24.8 µM | TGI [57]: 28.7 µM | TGI [58]: 23.2 µM | TGI [59]: 18.1 µM

O=C(CC(=O)Nc1ccccc1Cl)NNC(c1cc(N=Nc2ccc(Br)cc2)ccc1O)P(O)O (configuration not stated)
TGI [1]: > 10 µM | TGI [2]: 7.87 µM | TGI [3]: > 10 µM | TGI [4]: > 10 µM | TGI [5]: > 10 µM | TGI [6]: 6.71 µM | TGI [7]: 9.58 µM | TGI [8]: > 10 µM | TGI [9]: > 10 µM | TGI [10]: > 10 µM | TGI [11]: > 10 µM | TGI [12]: 0.964 µM | TGI [13]: > 10 µM | TGI [14]: 1.18 µM | TGI [15]: > 10 µM | TGI [16]: > 10 µM | TGI [17]: > 10 µM | TGI [18]: > 10 µM | TGI [19]: > 10 µM | TGI [20]: 6.78 µM | TGI [21]: > 10 µM | TGI [22]: 9.51 µM | TGI [23]: 2.72 µM | TGI [24]: > 10 µM | TGI [25]: > 10 µM | TGI [26]: > 10 µM | TGI [27]: > 10 µM | TGI [28]: > 10 µM | TGI [29]: > 10 µM | TGI [30]: 6 µM | TGI [31]: > 10 µM | TGI [32]: > 10 µM | TGI [33]: > 10 µM | TGI [34]: > 10 µM | TGI [35]: > 10 µM | TGI [36]: > 10 µM | TGI [37]: > 10 µM | TGI [38]: 3.57 µM | TGI [39]: > 10 µM | TGI [40]: > 10 µM | TGI [41]: > 10 µM | TGI [42]: > 10 µM | TGI [43]: > 10 µM | TGI [44]: 5.89 µM | TGI [45]: > 10 µM | TGI [46]: > 10 µM | TGI [47]: 4.96 µM | TGI [48]: > 10 µM | TGI [49]: > 10 µM | TGI [50]: > 10 µM | TGI [51]: 9.72 µM | TGI [52]: > 10 µM | TGI [53]: > 10 µM | TGI [54]: > 10 µM | TGI [55]: > 10 µM | TGI [56]: > 10 µM | TGI [57]: > 10 µM | TGI [58]: 6.12 µM | TGI [59]: > 10 µM
